ChEMBL document CHEMBL5291721, “A preclinical secondary pharmacology resource illuminates target-adverse drug reaction associations of marketed drugs” (Nat Commun, 2023)

Key:
[1] = biological target: T1, Alpha-2A adrenergic receptor (Homo sapiens, UniProt P08913)
T1 sequence (P08913 whole entry): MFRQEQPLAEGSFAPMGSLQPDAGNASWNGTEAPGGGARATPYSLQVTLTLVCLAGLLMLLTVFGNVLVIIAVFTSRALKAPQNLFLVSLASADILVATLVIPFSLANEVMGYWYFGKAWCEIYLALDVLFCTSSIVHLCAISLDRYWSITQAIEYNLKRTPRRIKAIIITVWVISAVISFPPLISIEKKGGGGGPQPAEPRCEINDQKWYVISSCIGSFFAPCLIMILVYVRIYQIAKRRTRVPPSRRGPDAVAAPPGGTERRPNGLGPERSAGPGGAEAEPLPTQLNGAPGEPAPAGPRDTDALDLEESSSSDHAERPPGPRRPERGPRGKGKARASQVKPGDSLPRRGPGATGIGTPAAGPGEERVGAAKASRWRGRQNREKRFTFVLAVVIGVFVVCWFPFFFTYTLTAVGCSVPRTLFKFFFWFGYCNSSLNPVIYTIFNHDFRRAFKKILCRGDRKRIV

Prothrombin = Prothrombin (Homo sapiens, UniProt P00734); format: functional
[2] = biological target: T2, 5-hydroxytryptamine receptor 1A (Homo sapiens, UniProt P08908)
T2 sequence (P08908 whole entry): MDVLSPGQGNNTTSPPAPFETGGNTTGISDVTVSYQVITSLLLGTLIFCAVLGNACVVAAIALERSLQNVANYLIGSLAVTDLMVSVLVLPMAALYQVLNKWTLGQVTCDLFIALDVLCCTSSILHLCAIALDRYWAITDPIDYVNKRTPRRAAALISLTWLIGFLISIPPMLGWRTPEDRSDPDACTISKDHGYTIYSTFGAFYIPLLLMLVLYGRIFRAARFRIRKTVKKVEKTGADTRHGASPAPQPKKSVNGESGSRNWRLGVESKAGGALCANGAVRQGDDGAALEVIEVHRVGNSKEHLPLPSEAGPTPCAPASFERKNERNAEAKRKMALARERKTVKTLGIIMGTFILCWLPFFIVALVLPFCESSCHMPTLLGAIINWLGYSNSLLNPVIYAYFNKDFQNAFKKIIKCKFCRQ

[3] = biological target: T3, Amine oxidase [flavin-containing] A (Homo sapiens, UniProt P21397); format: functional
T3 sequence (P21397 whole entry): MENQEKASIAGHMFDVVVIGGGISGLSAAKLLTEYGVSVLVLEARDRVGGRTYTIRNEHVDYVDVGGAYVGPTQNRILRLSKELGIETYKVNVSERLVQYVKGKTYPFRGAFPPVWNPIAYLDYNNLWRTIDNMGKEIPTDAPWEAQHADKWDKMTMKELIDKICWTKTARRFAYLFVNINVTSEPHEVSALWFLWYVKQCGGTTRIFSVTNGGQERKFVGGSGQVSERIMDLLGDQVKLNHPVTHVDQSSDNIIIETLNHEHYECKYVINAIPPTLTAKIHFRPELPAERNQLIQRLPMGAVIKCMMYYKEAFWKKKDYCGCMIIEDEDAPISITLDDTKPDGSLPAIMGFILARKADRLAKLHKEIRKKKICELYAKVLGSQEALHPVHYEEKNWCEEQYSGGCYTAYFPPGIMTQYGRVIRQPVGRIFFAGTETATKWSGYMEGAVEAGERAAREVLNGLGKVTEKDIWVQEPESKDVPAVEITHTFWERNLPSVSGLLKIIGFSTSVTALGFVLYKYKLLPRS

[4] = biological target: 3',5'-cyclic-AMP phosphodiesterase 4A (Homo sapiens, UniProt P27815); format: functional
Thromboxane A2 receptor = biological target: T4, Thromboxane A2 receptor (Homo sapiens, UniProt P21731); format: functional, cell-based
T4 sequence (P21731 whole entry): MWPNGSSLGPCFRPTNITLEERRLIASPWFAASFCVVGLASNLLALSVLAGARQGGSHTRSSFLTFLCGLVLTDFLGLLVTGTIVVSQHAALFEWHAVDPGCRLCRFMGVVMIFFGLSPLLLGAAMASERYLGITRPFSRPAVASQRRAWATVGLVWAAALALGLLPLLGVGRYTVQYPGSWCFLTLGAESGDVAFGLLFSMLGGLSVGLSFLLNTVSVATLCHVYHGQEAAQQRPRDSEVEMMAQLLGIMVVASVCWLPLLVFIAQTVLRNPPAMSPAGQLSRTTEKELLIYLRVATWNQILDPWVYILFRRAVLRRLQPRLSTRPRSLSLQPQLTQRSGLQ

[5] = biological target: T5, Muscarinic acetylcholine receptor M5 (Homo sapiens, UniProt P08912)
T5 sequence (P08912 whole entry): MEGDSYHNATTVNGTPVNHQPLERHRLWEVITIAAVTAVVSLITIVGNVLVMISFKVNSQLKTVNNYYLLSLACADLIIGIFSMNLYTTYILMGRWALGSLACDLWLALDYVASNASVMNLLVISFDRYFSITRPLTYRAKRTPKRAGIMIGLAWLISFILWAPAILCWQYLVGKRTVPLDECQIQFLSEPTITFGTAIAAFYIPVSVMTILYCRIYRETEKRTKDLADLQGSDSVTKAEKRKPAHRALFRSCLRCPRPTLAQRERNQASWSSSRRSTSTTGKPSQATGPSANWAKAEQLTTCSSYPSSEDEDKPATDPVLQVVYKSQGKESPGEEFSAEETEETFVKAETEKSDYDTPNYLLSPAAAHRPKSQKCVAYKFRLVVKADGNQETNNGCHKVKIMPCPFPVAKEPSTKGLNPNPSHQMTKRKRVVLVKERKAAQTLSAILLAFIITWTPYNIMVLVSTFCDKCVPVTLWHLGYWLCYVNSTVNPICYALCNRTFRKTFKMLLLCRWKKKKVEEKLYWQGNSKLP

D(1B) dopamine receptor = D(1B) dopamine receptor (Homo sapiens, UniProt P21918)
[6] = biological target: 5-hydroxytryptamine receptor 5A (Homo sapiens, UniProt P47898)
Substance-K receptor = biological target: T6, Substance-K receptor (Homo sapiens, UniProt P21452)
T6 sequence (P21452 whole entry): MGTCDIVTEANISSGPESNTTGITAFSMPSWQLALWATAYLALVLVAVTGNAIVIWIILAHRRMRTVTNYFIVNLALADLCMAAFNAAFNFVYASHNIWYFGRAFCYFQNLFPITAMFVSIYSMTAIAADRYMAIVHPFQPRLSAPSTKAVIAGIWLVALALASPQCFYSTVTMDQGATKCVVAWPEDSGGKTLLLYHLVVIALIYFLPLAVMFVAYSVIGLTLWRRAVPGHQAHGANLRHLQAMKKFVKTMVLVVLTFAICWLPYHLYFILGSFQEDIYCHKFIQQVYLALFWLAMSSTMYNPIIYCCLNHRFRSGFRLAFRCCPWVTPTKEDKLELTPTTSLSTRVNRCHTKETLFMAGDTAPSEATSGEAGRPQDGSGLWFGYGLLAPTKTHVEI
Further: assay procedure not described here.

Chain of 3',5'-cyclic-AMP phosphodiesterase 4A (P27815 whole entry): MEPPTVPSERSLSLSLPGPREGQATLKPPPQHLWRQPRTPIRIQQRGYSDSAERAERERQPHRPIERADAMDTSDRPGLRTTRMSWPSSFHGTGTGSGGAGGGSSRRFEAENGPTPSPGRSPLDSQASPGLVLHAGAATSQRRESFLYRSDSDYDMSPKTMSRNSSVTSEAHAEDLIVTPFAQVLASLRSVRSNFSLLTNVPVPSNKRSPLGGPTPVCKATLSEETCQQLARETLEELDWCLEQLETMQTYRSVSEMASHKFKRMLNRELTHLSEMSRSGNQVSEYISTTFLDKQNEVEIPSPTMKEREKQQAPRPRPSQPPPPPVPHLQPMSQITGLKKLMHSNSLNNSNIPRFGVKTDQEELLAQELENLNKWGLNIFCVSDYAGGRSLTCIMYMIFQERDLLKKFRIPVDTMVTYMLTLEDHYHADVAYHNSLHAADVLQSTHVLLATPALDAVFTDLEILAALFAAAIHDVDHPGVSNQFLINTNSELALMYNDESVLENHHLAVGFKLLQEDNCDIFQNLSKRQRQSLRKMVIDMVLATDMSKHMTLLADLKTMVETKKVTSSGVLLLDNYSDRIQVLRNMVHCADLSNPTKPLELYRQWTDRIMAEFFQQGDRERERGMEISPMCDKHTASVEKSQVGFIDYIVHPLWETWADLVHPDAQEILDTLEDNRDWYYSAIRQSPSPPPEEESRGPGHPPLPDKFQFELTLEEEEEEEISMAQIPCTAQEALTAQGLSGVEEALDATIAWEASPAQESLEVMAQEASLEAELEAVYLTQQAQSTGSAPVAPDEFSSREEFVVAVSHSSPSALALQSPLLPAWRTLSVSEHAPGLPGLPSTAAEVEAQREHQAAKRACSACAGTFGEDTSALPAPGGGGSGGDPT
Chain of 5-hydroxytryptamine receptor 5A (P47898 whole entry): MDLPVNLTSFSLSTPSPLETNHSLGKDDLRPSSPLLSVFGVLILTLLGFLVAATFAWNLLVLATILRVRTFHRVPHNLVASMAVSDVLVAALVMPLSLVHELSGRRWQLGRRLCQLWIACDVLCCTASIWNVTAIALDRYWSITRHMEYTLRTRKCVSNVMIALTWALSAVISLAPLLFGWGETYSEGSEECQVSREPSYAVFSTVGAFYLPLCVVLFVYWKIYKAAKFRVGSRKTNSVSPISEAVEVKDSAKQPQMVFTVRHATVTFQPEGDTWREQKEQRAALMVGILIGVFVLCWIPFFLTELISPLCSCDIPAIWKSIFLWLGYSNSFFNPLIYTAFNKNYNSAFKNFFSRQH
Chain of D(1B) dopamine receptor (P21918 whole entry): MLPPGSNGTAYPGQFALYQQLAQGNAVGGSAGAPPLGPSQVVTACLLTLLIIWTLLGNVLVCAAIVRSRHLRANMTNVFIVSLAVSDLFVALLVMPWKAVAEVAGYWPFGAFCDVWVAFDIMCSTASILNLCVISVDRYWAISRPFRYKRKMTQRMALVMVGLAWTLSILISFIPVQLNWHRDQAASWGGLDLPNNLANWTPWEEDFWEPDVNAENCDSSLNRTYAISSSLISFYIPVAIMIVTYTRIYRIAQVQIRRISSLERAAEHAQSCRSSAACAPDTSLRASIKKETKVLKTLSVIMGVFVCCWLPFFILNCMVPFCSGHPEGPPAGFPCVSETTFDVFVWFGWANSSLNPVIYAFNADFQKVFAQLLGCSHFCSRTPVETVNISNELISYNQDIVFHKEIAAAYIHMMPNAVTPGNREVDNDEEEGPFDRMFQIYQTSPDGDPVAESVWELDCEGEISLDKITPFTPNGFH

Molecule: NCCCC(O)(P(=O)(O)O)P(=O)(O)O [ALENDRONIC ACID]
- AC50 [1]: > 30 µM
- AC50 (Prothrombin): > 30 µM
- AC50 [2]: > 30 µM
- AC50 [3]: > 30 µM
- AC50 [4]: > 30 µM
- AC50 (Thromboxane A2 receptor): > 30 µM

Molecule: COC1=C(OC)C(=O)C(CCCCCCCCCCO)=C(C)C1=O [IDEBENONE]
- AC50 [5]: > 10 µM
- AC50 (D(1B) dopamine receptor): > 10 µM
- AC50 [6]: > 10 µM
- AC50 (Substance-K receptor): > 10 µM

Molecule: O=C1CN=C(c2ccccc2)c2cc(Cl)ccc2N1 [NORDAZEPAM]
- AC50 [5]: > 10 µM
- AC50 (D(1B) dopamine receptor): > 10 µM
- AC50 [6]: > 10 µM
- AC50 (Substance-K receptor): > 10 µM

Molecule: CC(CCc1ccccc1)NC(C)C(O)c1ccc(O)cc1 (stereo not drawn) [NYLIDRIN]
- AC50 [5]: > 10 µM
- AC50 (D(1B) dopamine receptor): > 10 µM
- AC50 [6]: > 10 µM
- AC50 (Substance-K receptor): > 10 µM

Molecule: O=C1Nc2ccc(Cl)cc2C(c2ccccc2)=NC1O (stereo not drawn) [OXAZEPAM]
- AC50 [5]: > 10 µM
- AC50 (D(1B) dopamine receptor): > 10 µM
- AC50 [6]: > 10 µM
- AC50 (Substance-K receptor): > 10 µM

Molecule: C[n+]1ccccc1/C=N/O [PRALIDOXIME]
- AC50 [1]: > 30 µM
- AC50 (Prothrombin): > 30 µM
- AC50 [2]: > 30 µM
- AC50 [3]: > 30 µM
- AC50 [4]: > 30 µM
- AC50 (Thromboxane A2 receptor): > 30 µM

Molecule: N#C[C@@H]1CCCN1C(=O)CNC12CC3CC(CC(O)(C3)C1)C2 [VILDAGLIPTIN]
- AC50 [5]: > 10 µM
- AC50 (D(1B) dopamine receptor): > 10 µM
- AC50 [6]: > 10 µM
- AC50 (Substance-K receptor): > 10 µM

Molecule: COLISTIN
- AC50 [1]: > 30 µM
- AC50 (Prothrombin): > 30 µM
- AC50 [2]: > 30 µM
- AC50 [3]: > 30 µM
- AC50 [4]: 12 µM
- AC50 (Thromboxane A2 receptor): > 30 µM
